Experimental data taken from patent publication US20030119066A1, “Diagnostic kit for detecting immunogenic response and method of screening” (Novozymes A/S, priority 2001, published 2003).

How the values were obtained:
anti-Savinase® antibody = assay: ELISA of antibody binding capacity of immobilized peptides with sera raised against different proteins; design: species or system rabbits, rats, and mice; conditions: biotin-linked peptide on streptavidin plates, sera raised against Alcalase, Subtilisin Novo, Carezyme, Laccase, Natalase, SP722, Lipolase (FIG. 1)
Description: The antibody binding capacity of the two linear peptide sequences, RRFANDHTR (light gray bars) and RRFSNATRA (dark gray bars), were tested in an ELISA assay, by measuring optical density, OD. The sequences were tested for binding to antibodies in sera raised against different proteins. The different proteins are marked by capital letters A through H. A=Alcalase®, B=Savinase®, C=Subtilisin Novo®), D=Carezyme®) (cellulase), E=Laccase, F=Natalase® (amylase), G=SP722 (amylase), H=Lipolase® (lipase).
Specific IgG and IgE levels were determined using the ELISA specific for human, mouse or rat IgG or IgE. Differences between data sets were analysed by using appropriate statistical methods. The assays were performed as known to the expert.
The following sequences were synthezised, and immobilized on biotin, through a linker molecule:
The biotin-complex was immobilized in ELISA well plates, pre-coated with streptavidin. If phages were used, these were directly coated into the ELISA plate wells. ELISA was performed as described elsewhere, on sera from rabbits, rats, and mice raised against Alcalase®, Savinase®, and Subtilisin Novo® as well as a number of less relevant proteins.
In FIG. 1 the reactivity of the selected peptides in terms of antibody binding capacity is shown (ELISA assay). […]

specific antibodies = assay: Phage display library screening for clones binding specific antibodies; conditions: random hexa-, nona- or dodeca peptide phage display library
Excerpt: In a particular method, the identification of antibody binding sequences may be achieved by screening a display package library, particularly a phage display library. The principle behind phage display is that a heterologous DNA sequence can be inserted in the gene coding for a coat protein of the phage (WO 92/15679). The phage will make and display the hybrid protein on its surface where it can interact with specific target agents. Such target agent may be antigen-specific antibodies. It is therefore possible to select specific phages that display antibody-binding peptide sequences. […] Thus, by screening for antibody binding, one can isolate the peptide sequences that have sufficiently high affinity for the particular antibody used. The peptides of the hybrid proteins of the specific phages which bind protein-specific antibodies characterize epitopes that are recognized by the immune system.
From a phage display library expressing random hexa-, nona- or dodeca peptides as part of their membrane proteins, specific phage clones were isolated capable of binding specific antibodies. […] The amino acid sequence of the corresponding oligopeptide was deduced from the DNA sequence.

Row | Substance | reactivity (antibody binding capacity, optical density, OD) (anti-Savinase® antibody) | antibody binding of phage-displayed peptide (specific antibodies)
1 | R R F A N D H T R (RRFANDHTR) | Reactivity was observed with anti-Savinase® antibody only | –
2 | R R F S N A T R A (RRFSNATRA) | Reactivity was observed with anti-Savinase® antibody only | –
3 | VQVYGDTSA | – | specific antibody binding peptide
